In patent US20240158446A1, “CYCLIC COMPOUND HAVING SELECTIVE INHIBITORY ACTION ON KRAS OVER HRAS AND NRAS” (CHUGAI SEIYAKU KABUSHIKI KAISHA, priority 2021, published 2024):
Where two headings read alike, the source gives them in different places. Where a SMILES comes first, the peptide text is derived from it. Bridges are numbered along the chain shown (N, C = ends). [ ]: non-standard residue; d: D form. The star is where a group is joined. hPhe(3-Cl-4-CF3) = N[C@@H](CCc1ccc(C(F)(F)F)c(Cl)c1)C(=O)O; NPrPhe(4-CF3) = CCCN[C@@H](Cc1ccc(C(F)(F)F)cc1)C(=O)O; NMePhe(4-Me) = CN[C@@H](Cc1ccc(C)cc1)C(=O)O; Abu(4,4,4-F3) = N[C@@H](CC(F)(F)F)C(=O)O; NMeGly(cPent) = CN[C@H](C(=O)O)C1CCCC1; Hyp = O=C(O)[C@@H]1C[C@@H](O)CN1; NMeD = CN[C@@H](CC(=O)O)C(=O)O; NMeL = CN[C@@H](CC(C)C)C(=O)O; Morpholide = C1CN(*)CCO1; NMeA = CN[C@@H](C)C(=O)O; Ac5c = NC1(C(=O)O)CCCC1; Aze = O=C(O)[C@@H]1CCN1; Ac4c = NC1(C(=O)O)CCC1; NEtG = CCNCC(=O)O; Sar = CNCC(=O)O

How the values were obtained:
[1] = target: GDP-bound NRAS wild-type protein (Homo sapiens, UniProt P01111); assay: Binding to NRAS by surface plasmon resonance (SPR), Single Cycle Kinetics; details: for NRAS/KRAS (ratio of KD value with respect to NRAS to KD value with respect to KRAS) / NRAS/KRAS (ratio of KD value for NRAS to KD value for KRAS): SPR, GDP-bound NRAS wild-type protein vs GDP-bound KRAS wild-type protein
[2] = target: GDP-bound KRAS wild-type protein (Homo sapiens, UniProt P01116); assay: Binding to KRAS by surface plasmon resonance (SPR), Single Cycle Kinetics; details: GDP-bound KRAS wild-type protein, read-out: KRAS KD
[3] = target: GDP-bound HRAS wild-type protein (Homo sapiens, UniProt P01112); assay: Binding to HRAS by surface plasmon resonance (SPR), Single Cycle Kinetics; details: for HRAS/KRAS (ratio of KD value with respect to HRAS to KD value with respect to KRAS) / HRAS/KRAS (ratio of KD value for HRAS to KD value for KRAS): SPR, GDP-bound HRAS wild-type protein vs GDP-bound KRAS wild-type protein
[4] = SPR Single Cycle Kinetics, 1:1 binding model

Sequence of GDP-bound HRAS wild-type protein (P01112 whole entry): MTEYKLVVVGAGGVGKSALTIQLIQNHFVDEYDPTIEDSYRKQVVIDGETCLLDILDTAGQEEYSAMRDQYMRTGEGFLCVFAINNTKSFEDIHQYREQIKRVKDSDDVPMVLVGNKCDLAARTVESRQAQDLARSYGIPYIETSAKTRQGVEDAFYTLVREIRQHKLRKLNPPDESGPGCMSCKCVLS
Sequence of GDP-bound NRAS wild-type protein (P01111 whole entry): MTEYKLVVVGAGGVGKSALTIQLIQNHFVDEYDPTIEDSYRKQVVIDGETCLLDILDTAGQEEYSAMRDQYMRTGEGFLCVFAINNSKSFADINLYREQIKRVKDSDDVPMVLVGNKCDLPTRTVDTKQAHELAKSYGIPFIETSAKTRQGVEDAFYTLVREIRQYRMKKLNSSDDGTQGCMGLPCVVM
Sequence of GDP-bound KRAS wild-type protein (P01116 whole entry): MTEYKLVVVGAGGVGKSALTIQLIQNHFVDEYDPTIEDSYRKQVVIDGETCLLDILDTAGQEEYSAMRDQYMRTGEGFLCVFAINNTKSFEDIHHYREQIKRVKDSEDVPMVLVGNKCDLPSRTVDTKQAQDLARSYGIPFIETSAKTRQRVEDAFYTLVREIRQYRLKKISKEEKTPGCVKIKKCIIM

For CCCN1C(=O)[C@H](C2CCCC2)N(C)C(=O)C2(CCC2)NC(=O)[C@@H]2C[C@@H](OCC)CN2C(=O)[C@H](CCc2cc(F)c(C(F)(F)F)c(F)c2)NC(=O)CN(C)C(=O)[C@H](Cc2ccc(C(F)(F)F)cc2)N2CCCCC[C@@H](C2=O)N(C)C(=O)CN(C)C(=O)[C@H]([C@@H](C)CC)NC(=O)[C@H](CC(C)C)N(C)C(=O)C[C@H]1C(=O)N1CCOCC1 [PP0639], the “NRAS/KRAS (ratio of KD value with respect to NRAS to KD value with respect to KRAS)” value [1] was “B (a compound having 3 or more and less than 10 is denoted as B)”, the Kd [2, 4] was 8.5 nM and the “HRAS/KRAS (ratio of KD value with respect to HRAS to KD value with respect to KRAS)” value [3] was “B (a compound having 3 or more and less than 10 is denoted as B)”.

For CCCN1C(=O)CN(C)C(=O)CN(C)C(=O)[C@H]([C@@H](C)CC)NC(=O)[C@H](CC(C)C)N(C)C(=O)C[C@@H](C(=O)N2CCOCC2)N(C)C(=O)[C@H](C2CCCC2)N(C)C(=O)C2(CCC2)NC(=O)[C@@H]2C[C@@H](OCC)CN2C(=O)[C@H](CCc2ccc(C(F)(F)F)c(Cl)c2)NC(=O)CN(C)C(=O)[C@@H]1Cc1ccc(C(F)(F)F)cc1 [PP0392] ([NMeL]I[Sar][Sar][NPrPhe(4-CF3)][Sar][hPhe(3-Cl-4-CF3)][Hyp](Et)[Ac4c][NMeGly(cPent)][NMeD]-Morpholide; lactam N-11), the “NRAS/KRAS (ratio of KD value for NRAS to KD value for KRAS)” value [1] was “B (a compound having 3 or more and less than 10 is denoted as B)”, the Kd [2, 4] was 0.067 nM and the “HRAS/KRAS (ratio of KD value for HRAS to KD value for KRAS)” value [3] was “C (A compound having a KD ratio of 0.1 or more and less than 3 is denoted as C)”.

With CC[C@H](C)[C@@H]1NC(=O)[C@H](CC(C)C)N(C)C(=O)C[C@@H](C(=O)N2CCOCC2)N(C)C(=O)[C@H](C2CCCC2)N(C)C(=O)C2(CC2)NC(=O)[C@@H]2CCCN2C(=O)[C@H](CCc2cc(F)c(C(F)(F)F)c(F)c2)NC(=O)CN(C)C(=O)[C@H](Cc2ccc(C(F)(F)F)cc2)N2CCCCC[C@@H](C2=O)N(C)C(=O)CN(C)C1=O [PP0496] the “NRAS/KRAS (ratio of KD value with respect to NRAS to KD value with respect to KRAS)” value [1] was “B (a compound having 3 or more and less than 10 is denoted as B)”, the Kd [2, 4] was 4.8 nM and the “HRAS/KRAS (ratio of KD value with respect to HRAS to KD value with respect to KRAS)” value [3] was “B (a compound having 3 or more and less than 10 is denoted as B)”.

In the case of CC[C@H](C)[C@@H]1NC(=O)[C@H](CC)N(C)C(=O)C[C@@H](C)N(C)C(=O)[C@H](C2CCCC2)N(C)C(=O)C2(CCCC2)NC(=O)[C@@H]2CCCN2C(=O)[C@H](CCc2cc(F)c(C(F)(F)F)c(F)c2)NC(=O)CN(C)C(=O)[C@H](Cc2ccc(C(F)(F)F)cc2)N2CC/C=C\C[C@@H](C2=O)N(C)C(=O)CN(C)C1=O [PP1101], the “NRAS/KRAS (ratio of KD value for NRAS to KD value for KRAS)” value [1] is reported as “B (a compound having 3 or more and less than 10 is denoted as B)”, the Kd ([2]; SPR, Single Cycle Kinetics) is reported as 0.46 nM and the “HRAS/KRAS (ratio of KD value for HRAS to KD value for KRAS)” value [3] is reported as “B (a compound having 3 or more and less than 10 is denoted as B)”.

CCCN1C(=O)[C@@H]2CCN2C(=O)[C@H](C)N(C)C(=O)[C@H](CC(F)(F)F)NC(=O)[C@H](CC(C)C)N(C)C(=O)C[C@@H](C(=O)N2CCOCC2)N(C)C(=O)[C@H](C2CCCC2)N(C)C(=O)C2(CCCC2)NC(=O)[C@@H]2CCCN2C(=O)[C@H](CCc2ccc(C(F)(F)F)c(Cl)c2)NC(=O)CN(C)C(=O)[C@@H]1Cc1ccc(C(F)(F)F)cc1 [PP0270] ([NMeL][Abu(4,4,4-F3)][NMeA][Aze][NPrPhe(4-CF3)][Sar][hPhe(3-Cl-4-CF3)]P[Ac5c][NMeGly(cPent)][NMeD]-Morpholide; lactam N-11) was tested, and the “NRAS/KRAS (ratio of KD value for NRAS to KD value for KRAS)” value [1] was “C (A compound having a KD ratio of 0.1 or more and less than 3 is denoted as C)”, the Kd [2, 4] was 0.76 nM and the “HRAS/KRAS (ratio of KD value for HRAS to KD value for KRAS)” value [3] was “B (a compound having 3 or more and less than 10 is denoted as B)”.

CC[C@H](C)[C@@H]1NC(=O)[C@H](CC(C)C)N(C)C(=O)C[C@@H](C(=O)N2CCOCC2)N(C)C(=O)[C@H](C2CCCC2)N(C)C(=O)C2(CCCC2)NC(=O)[C@@H]2CCCN2C(=O)[C@H](CCc2ccc(C(F)(F)F)c(Cl)c2)NC(=O)CN(C)C(=O)[C@H](Cc2ccc(C)cc2)N(C)C(=O)CN(CC)C(=O)CN(C)C1=O [PP0019] ([NMeL]I[Sar][NEtG][NMePhe(4-Me)][Sar][hPhe(3-Cl-4-CF3)]P[Ac5c][NMeGly(cPent)][NMeD]-Morpholide; lactam N-11) was tested, and the “NRAS/KRAS (ratio of KD value for NRAS to KD value for KRAS)” value [1] was “C (A compound having a KD ratio of 0.1 or more and less than 3 is denoted as C)”, the Kd [2, 4] was 0.34 nM and the “HRAS/KRAS (ratio of KD value for HRAS to KD value for KRAS)” value [3] was “C (A compound having a KD ratio of 0.1 or more and less than 3 is denoted as C)”.

For CCCN1C(=O)[C@@H]2CCN2C(=O)CN(C)C(=O)[C@H]([C@@H](C)CC)NC(=O)[C@H](CC(C)C)N(C)C(=O)C[C@@H](C(=O)N(C)C)N(C)C(=O)[C@H](C2CCCC2)N(C)C(=O)C2(CCC2)NC(=O)[C@@H]2CCCN2C(=O)[C@H](CCc2ccc(C(F)(F)F)c(Cl)c2)NC(=O)CN(C)C(=O)[C@@H]1Cc1ccc(C(F)(F)F)cc1 [PP0441] ([NMeL]I[Sar][Aze][NPrPhe(4-CF3)][Sar][hPhe(3-Cl-4-CF3)]P[Ac4c][NMeGly(cPent)][NMeD]-NMe2; lactam N-11), the “NRAS/KRAS (ratio of KD value with respect to NRAS to KD value with respect to KRAS)” value [1] was “C (A compound having a KD ratio of 0.1 or more and less than 3 is denoted as C)”, the Kd [2, 4] was 0.072 nM and the “HRAS/KRAS (ratio of KD value with respect to HRAS to KD value with respect to KRAS)” value [3] was “C (A compound having a KD ratio of 0.1 or more and less than 3 is denoted as C)”.

With CCO[C@@H]1C[C@H]2C(=O)NC3(CCC3)C(=O)N(C)[C@@H](C3CCCC3)C(=O)N(C)[C@H](C(=O)N(C)C)CC(=O)N(C)[C@@H](CC(F)(F)F)C(=O)N[C@@H]([C@@H](C)CC)C(=O)N(C)CC(=O)N(C)[C@H]3C/C=C\CCN(C3=O)[C@@H](Cc3ccc(C(F)(F)F)cc3)C(=O)N(C)CC(=O)N[C@@H](CCc3cc(F)c(C(F)(F)F)c(F)c3)C(=O)N2C1 [PP1124, (2S,8S,12R,14S,20S,23S,27S,30S,36S,38Z)-20-cyclopentyl-8-[2-[3,5-difluoro-4-(trifluoromethyl)phenyl]ethyl]-12-ethoxy-N,N,4,19,22,26,32,35-octamethyl-30-[(1S)-1-methylpropyl]-3,6,9,15,18,21,25,28,31,34,42-undecaoxo-27-(2,2,2-trifluoroethyl)-2-[[4-(trifluoromethyl)phenyl]methyl]spiro[1,4,7,10,16,19,22,26,29,32,35-undecazatricyclo[34.5.1.0^10,14]dotetracont-38-ene-17,1′-cyclobutane]-23-carboxamide] the “NRAS/KRAS (ratio of KD value for NRAS to KD value for KRAS)” value [1] was “A (a compound having 10 or more and less than 20 is denoted as A)”, the Kd ([2]; SPR, Single Cycle Kinetics) was 0.056 nM and the “HRAS/KRAS (ratio of KD value for HRAS to KD value for KRAS)” value [3] was “B (a compound having 3 or more and less than 10 is denoted as B)”.

For CCO[C@@H]1C[C@H]2C(=O)NC3(CC(C)(C)C3)C(=O)N(C)[C@@H](C3CCCC3)C(=O)N(C)[C@H](C(=O)N(C)CC)CC(=O)N(C)[C@H]3CCCC/C=C/c4ccc(cc4)C[C@@H](C(=O)N(C)CC(=O)N[C@@H](CCc4ccc(Cl)c(Cl)c4)C(=O)N2C1)N1CC/C=C\C[C@@H](C1=O)N(C)C(=O)CN(C)C(=O)[C@H]([C@@H](C)CC)NC3=O [PP2592], the “NRAS/KRAS (ratio of KD value with respect to GDP-bound NRAS wild-type protein to KD value with respect to KRAS)” value ([1]; SPR KD ratio NRAS/KRAS, class symbols) was “A (a compound having 10 or more and less than 20 is denoted as A)”, the Kd [2, 4] was 0.13 nM and the “HRAS/KRAS (ratio of KD value with respect to GDP-bound HRAS wild-type protein to KD value with respect to KRAS)” value ([3]; SPR KD ratio HRAS/KRAS, class symbols) was “A (a compound having 10 or more and less than 20 is denoted as A)”.

With CCO[C@@H]1C[C@H]2C(=O)NC3(CCC3)C(=O)N(C)[C@@H](C3CCCC3)C(=O)N(C)[C@H](C(=O)N(C)C)CC(=O)N(C)[C@@H](CC(C)(C)C)C(=O)N[C@@H]([C@@H](C)CC)C(=O)N(C)CC(=O)N(C)[C@H]3C/C=C\CCN(C3=O)[C@@H](Cc3ccc(C(F)(F)F)cc3)C(=O)N(C)CC(=O)N[C@@H](CCc3cc(F)c(C(F)(F)F)c(F)c3)C(=O)N2C1 [PP1117, (2S,8S,12R,14S,20S,23S,27S,30S,36S,38Z)-20-cyclopentyl-8-[2-[3,5-difluoro-4-(trifluoromethyl)phenyl]ethyl]-27-(2,2-dimethylpropyl)-12-ethoxy-N,N,4,19,22,26,32,35-octamethyl-30-[(1S)-1-methylpropyl]-3,6,9,15,18,21,25,28,31,34,42-undecaoxo-2-[[4-(trifluoromethyl)phenyl]methyl]spiro[1,4,7,10,16,19,22,26,29,32,35-undecazatricyclo[34.5.1.0^10,14]dotetracont-38-ene-17,1′-cyclobutane]-23-carboxamide] the “NRAS/KRAS (ratio of KD value for NRAS to KD value for KRAS)” value [1] was “A (a compound having 10 or more and less than 20 is denoted as A)”, the Kd ([2]; SPR, Single Cycle Kinetics) was 0.07 nM and the “HRAS/KRAS (ratio of KD value for HRAS to KD value for KRAS)” value [3] was “A (a compound having 10 or more and less than 20 is denoted as A)”.

In the case of CC[C@H](C)[C@@H]1NC(=O)[C@H](CC2CC2)N(C)C(=O)C[C@@H](C(=O)N(C)CC)N(C)C(=O)[C@H](C2CCCC2)N(C)C(=O)C2(CCC2)NC(=O)[C@@H]2CC(F)(F)CN2C(=O)[C@H](CCc2cc(F)c(C(F)(F)F)c(F)c2)NC(=O)CN(C)C(=O)[C@H](Cc2ccc(C(F)(F)F)cc2)N2CC/C=C\C[C@@H](C2=O)N(C)C(=O)CN(C)C1=O [PP1538], the “NRAS/KRAS (ratio of KD value for NRAS to KD value for KRAS)” value ([1]; KD ratio class) is reported as “A (a compound having 10 or more and less than 20 is denoted as A)”, the Kd ([2]; SPR, Single Cycle Kinetics, 1:1 binding model) is reported as 0.086 nM and the “HRAS/KRAS (ratio of KD value for HRAS to KD value for KRAS)” value ([3]; KD ratio class) is reported as “B (a compound having 3 or more and less than 10 is denoted as B)”.
